Assays:
[1] = tested on: C57/BL6N male mice; assay: Survival time in 4% oxygen after intraperitoneal NaHS or 2-methylthiophene; assay type: in vivo, mouse; conditions: 200 μl i.p. of 1% solution; all individuals; observation time of 30 min
Protocol: Thus, the survival time was measured at the remaining three concentrations. As a control, the survival time of the mice intraperitoneally injected with saline or 2-methylthiophene (1% solution) in 4% oxygen was measured.

[2] = tested on: TNF-α; assay: Blood TNF-α after LPS and 4E2MT, Trpa1 knockout and control mice; assay type: in vivo, mouse; conditions: 1 hr after simultaneous i.p. administration with LPS
Protocol: Lipopolysaccharide (LPS) (0.6 mg/kg) was intraperitoneally administered to male Balb/c mice (about 2-3 months old) to generate a sepsis model. Immediately after the LPS administration, 200 μl (about 80 mg/kg) of a solution prepared by diluting various heterocyclic compounds and isothiocyanate compounds 100 times with saline was intraperitoneally administered. Blood samples were collected 60 min after LPS and compound administration, EDTA plasma was prepared, and the blood level of inflammatory cytokine TNF-a was measured by the ELISA method.
Changes in the body surface temperature, survival time under a hypoxic environment, and TNF-α production in blood by LPS administration induced by intraperitoneally administration of thiazoline-related compound (4-ethyl-2-methyl-2-thiazoline; 4E2MT) measured by a method similar to those in Example 3, Example 10, or Example 18.

[3] = tested on: male C57/BL6N mouse; assay: Survival time in 4% oxygen after Trpa1 agonist i.p.; assay type: in vivo; conditions: wild-type mouse; i.p. Δ9-THC 10 mg/kg, AITC 40 mg/kg, APAP 300 mg/kg; 30 min before 4% oxygen; versus saline
Protocol: (§1) Saline or known Trpa1 agonists Δ9-tetrahydrocannabinol (Δ^9-THC; 10 mg/kg), allyl isothiocyanate (AITC; 40 mg/kg), or acetaminophen (APAP; 300 mg/kg) was intraperitoneally administered to male C57/BL6N mouse (about 3-month-old) and, 30 min later, the mouse was placed in a tight box with adjusted oxygen concentration of 4%, and the survival time of the mouse was measured for 30 min at maximum. As to APAP, the survival time in 4% oxygen environment was also measured using male Trpa1 knockout and littermate hetero mice (about 3-to 6-month-old).

[4] = tested on: Trpa1 knockout and littermate hetero mice; assay: Survival time in 4% oxygen after APAP i.p., Trpa1 knockout and hetero mice; assay type: in vivo, mouse; conditions: 300 mg/kg i.p., versus saline
Protocol: as §1

[5] = Yu et al., Cell Physiol Biochem 36: 1539-1551, 2015; cited from earlier work
[6] = tested on: C57/BL6N male mice; assay: Survival time in 4% oxygen after intraperitoneal administration; assay type: in vivo, mouse; conditions: Example 12, about 80 mg/kg i.p., 30 min before 4% oxygen, Kaplan-Meier, versus saline
Protocol: Influence of intraperitoneal administration of various kinds of heterocyclic compounds on the survival time of mouse under hypoxic environment was analyzed. The odor molecule was administered by a method of intraperitoneally injecting 200 μl (about 80 mg/kg, i.p.) of a solution diluted 100 times with saline and, 30 min later, the mice were placed in a tight box with adjusted oxygen concentration of 4%, and the survival time of the mouse was measured for 30 min at maximum. As a control, the survival time of the mice intraperitoneally injected with saline (control) was measured.
By a method similar to that in Example 10, influence of intraperitoneal administration of various isothiocyanate compounds (about 80 mg/kg, i.p.) on the survival time of mouse under hypoxic environment was analyzed.
About 3-month-old C57/BL6N male mice were intraperitoneally injected with 200 μl (about 80 mg/kg, i.p.) of a thiomorpholine solution diluted 100 times with saline and, 30 min later, the mice were placed in a tight box with adjusted oxygen concentration of 4%, and the survival time of the mouse was measured. As a control, the survival time of the mice intraperitoneally injected with saline was measured.

[7] = tested on: mice; assay: Oxygen consumption after intraperitoneal injection; assay type: in vivo, mouse; conditions: versus saline
Protocol: An influence of a thiazoline-related compound on the oxygen consumption was analyzed. The oxygen consumption was analyzed using an energy metabolism measurement device for small animals (ARCO-2000; ARCO SYSTEM). About 3-month-old C57/BL6N male mice were each placed in a measuring chamber and, after acclimation for about 2 hr, a thiazoline-related compound (2MT) was presented. The odors were presented by placing filter papers scented with 100 μl (104 mmol) of odor molecules in the measuring chamber. As a control, an experiment in which a filter paper dropped with saline was presented to the mice was also performed. The oxygen consumption was measured every one min. Mean oxygen consumption was calculated as the mean of 10 min before presenting odor and 20 min after presenting odor.
Changes in the oxygen consumption induced by intraperitoneal injection of heterocyclic compounds (2MT and Thiomorpholine (TMO) were measured by a method similar to that in Example 8.

[8] = tested on: wild-type and Trpa1 knockout mice; assay: Survival time in 4% oxygen, thiomorpholine i.p., wild-type and Trpa1 knockout mice; assay type: in vivo, mouse; conditions: about 80 mg/kg i.p.
Protocol: A heterocyclic compound (thiomorpholine) (200 μl, about 80 mg/kg) diluted 100 times with saline was intraperitoneally injected to male wild-type and Trpa1 knockout mice (about 3 to 6-month-old) and, 30 min later, the mice were placed in a tight box in which the oxygen concentration was adjusted to 4%, and the survival time of the mice was measured.

## Cc1cccs1 [2-methylthiophene]
[1]
  survival time in 4% oxygen: ≥ 30 min

## CCC1CSC(C)=N1 (stereo not drawn) [4E2MT, 4-ethyl-2-methyl-2-thiazoline]
[2]
  amount of TNF-α in blood (decreasing effect): this effect was suppressed

## CCCCCc1cc(O)c2c(c1)OC(C)(C)[C@@H]1CCC(C)=C[C@@H]21 [49-THC, Δ9-tetrahydrocannabinol]
[3]
  survival time in 4% oxygen: extending the survival time

## C=CCN=C=S [AITC, allyl isothiocyanate]
[3]
  survival time in 4% oxygen: extending the survival time

## CC(=O)Nc1ccc(O)cc1 [APAP, acetaminophen]
[3]
  survival time in 4% oxygen: extending the survival time
[4]; Trpa1 knockout mice (Trpa1−/−)
  survival time in 4% oxygen: such effect was not observed
[4]; control mice (Trpa1+/−)
  survival time in 4% oxygen: extending the survival time

## [Na+].[SH-] [NaHS]
[5]
  protective effects in ischemia-reperfusion injury: protective effects in ischemia-reperfusion injury

## C1CSCCN1 [thiomorpholine]
[6]
  survival time in 4% oxygen (hypoxia resistance): produces hypoxia resistance
[7]
  oxygen consumption: suppress the oxygen consumption
[8]; Trpa1 knockout mice (Trpa1−/−), compared with wild-type mouse
  survival time in 4% oxygen: survival time significantly decreased
[8]; wild-type mice (Trpa1+/+)
  survival time in 4% oxygen: significantly prolonging the survival time
